From patent US8143304B2, “(3-amino-1,2,3,4-tetrahydro-9 H-carbazol-9-yl)-acetic acid derivatives” (Actelion Pharmaceutical Ltd., priority 2006, dated 2012)

Target: T1, hCRTH2 receptor (Homo sapiens, UniProt Q9Y5Y4)
T1 construct: expressed in transfected cells; host or cells: clonal HEK 293 cell line (membrane preparation)
T1 sequence (Q9Y5Y4 1-395): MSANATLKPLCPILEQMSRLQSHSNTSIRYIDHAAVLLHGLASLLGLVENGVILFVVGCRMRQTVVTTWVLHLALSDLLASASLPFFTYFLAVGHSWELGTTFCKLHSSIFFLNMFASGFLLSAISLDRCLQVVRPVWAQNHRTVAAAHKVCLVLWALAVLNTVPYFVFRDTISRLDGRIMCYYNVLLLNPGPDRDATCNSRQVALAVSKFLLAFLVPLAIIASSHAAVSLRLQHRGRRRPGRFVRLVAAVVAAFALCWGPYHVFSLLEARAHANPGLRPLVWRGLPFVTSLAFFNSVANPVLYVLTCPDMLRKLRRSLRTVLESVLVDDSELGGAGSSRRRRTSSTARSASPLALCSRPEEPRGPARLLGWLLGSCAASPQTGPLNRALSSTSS
Assay: hCRTH2 receptor membranes radioligand binding assay ({3H}-PGD2)
Conditions: {3H}-PGD2 2.5 nM, membranes of HEK 293 cells expressing recombinant hCRTH2 receptor; read-out: hCRTH2 Bdg IC50
Method: The biological effect of such compounds may be tested in a variety of in vitro, ex vivo and in vivo assays.
Biological Assays: Preparation of hCRTH2 Receptor Membranes and Radioligand Binding Assay:
Cells are detached from culture plates in 5 ml buffer A per plate (5 mM Tris, pH 7.4, 1 mM MgCl2, 0.1 mM PMSF, 0.1 mM phenanthroline) using a police rubber and transferred into centrifugation tubes and frozen at −80° C. After thawing, the cells are centrifuged at 500 g for 5 min and then resuspended in buffer A. Cells are then fragmented by homogenization with a Polytron cell homogenizer for 30 s. The membrane fragments are collected by centrifugation at 3000 g for 40 min and resuspended in buffer B (50 mM Tris, pH 7.4, 25 mM MgCl2, 250 mM saccharose) and aliquots are stored at […].
Binding assay is performed in a total volume of 250 μl. […] For unspecific binding, PGD2 is added to the reaction mixture at 1 μM final concentration. This binding assay mix is incubated at rt for 90 min and then filtered through a GF/C filter plate. The filter is washed three times with ice cold binding buffer C. Then, Microscint-40 (Packard, 40 μl/well) is added and the receptor bound radioactivity is quantified by scintillation counting in a “TopCount” benchtop microplate scintillation counter (Packard).

SMILES	IC50
O=C(O)Cn1c2c(c3cc(F)ccc31)C[C@@H](NC(=O)CC(c1ccccc1)c1ccccc1)CC2 [(3S)-[3-(3,3-Diphenyl-propionylamino)-6-fluoro-1,2,3,4-tetrahydro-9H-carbazol-9-yl]-acetic acid]	2 nM
Cc1ccc(CCC(=O)N[C@@H]2CCc3c(c4cc(F)ccc4n3CC(=O)O)C2)cc1 [(3R)-[6-Fluoro-3-(3-p-tolyl-propionylamino)-1,2,3,4-tetrahydro-9H-carbazol-9-yl]-acetic acid]	61 nM
CC(C)COC(=O)N[C@H]1CCc2c(c3ccccc3n2CC(=O)O)C1 [(3S)-(3-Isobutoxycarbonylamino-1,2,3,4-tetrahydro-9H-carbazol-9-yl)-acetic acid]	84 nM
O=C(O)Cn1c2c(c3ccccc31)C[C@H](NC(=O)Cc1cccs1)CC2 [(3R)-[3-(2-Thiophen-2-yl-acetylamino)-1,2,3,4-tetrahydro-9H-carbazol-9-yl]-acetic acid]	297 nM
CS(=O)(=O)c1ccc(CCC(=O)N[C@H]2CCc3c(c4cc(F)ccc4n3CC(=O)O)C2)cc1 [(3S)-{6-Fluoro-3-[3-(4-methanesulfonyl-phenyl)-propionylamino]-1,2,3,4-tetrahydro-9H-carbazol-9-yl}-acetic acid]	72 nM
O=C(O)Cn1c2c(c3ccccc31)C[C@H](NC(=O)Nc1cccc3ccccc13)CC2 [(3R)-[3-(3-Naphthalen-1-yl-ureido)-1,2,3,4-tetrahydro-9H-carbazol-9-yl]-acetic acid]	152 nM
O=C(O)Cn1c2c(c3ccccc31)C[C@H](NC(=O)NS(=O)(=O)c1ccccc1)CC2 [(3R)-[3-(3-Phenylsulfonyl-ureido)-1,2,3,4-tetrahydro-9H-carbazol-9-yl]-acetic acid]	147 nM
O=C(O)Cn1c2c(c3cc(F)ccc31)C[C@@H](NC(=O)c1cc3ccccc3[nH]1)CC2 [(3S)-{6-Fluoro-3-[(1H-indole-2-carbonyl)-amino]-1,2,3,4-tetrahydro-9H-carbazol-9-yl}-acetic acid]	824 nM
CC(C)(C)OC(=O)Nc1cccc(CCC(=O)N[C@H]2CCc3c(c4cc(F)ccc4n3CC(=O)O)C2)c1 [(3S)-{3-[3-(3-tert-Butoxycarbonylamino-phenyl)-propionylamino]-6-fluoro-1,2,3,4-tetrahydro-9H-carbazol-9-yl}-acetic acid]	93 nM
O=C(O)Cn1c2c(c3ccccc31)C[C@H](NC(=O)c1ccccc1)CC2 [(3R)-(3-Benzoylamino-1,2,3,4-tetrahydro-9H-carbazol-9-yl)-acetic acid]	488 nM
O=C(O)Cn1c2c(c3ccccc31)C[C@H](NC(=O)CCC1CCCC1)CC2 [(3R)-[3-(3-Cyclopentyl-propionylamino)-1,2,3,4-tetrahydro-9H-carbazol-9-yl]-acetic acid]	400 nM
O=C(O)Cn1c2c(c3ccccc31)C[C@@H](NC(=O)OCCOCc1ccccc1)CC2 [(3S)-[3-(2-Benzyloxy-ethoxycarbonylamino)-1,2,3,4-tetrahydro-9H-carbazol-9-yl]-acetic acid]	117 nM
CCCCNC(=O)N[C@H]1CCc2c(c3ccccc3n2CC(=O)O)C1 [(3S)-[3-(3-Butyl-ureido)-1,2,3,4-tetrahydro-9H-carbazol-9-yl]-acetic acid]	896 nM

Second part, the compound after the results:

IC50	SMILES
4 nM	CC(=O)N(CCc1ccccc1F)[C@H]1CCc2c(c3cc(F)ccc3n2CC(=O)O)C1 [(3S)-(3-{Acetyl-[2-(2-fluoro-phenyl)-ethyl]-amino}-6-fluoro-1,2,3,4-tetrahydro-9H-carbazol-9-yl)-acetic acid]
11 nM	O=C(O)Cn1c2c(c3cc(F)ccc31)C[C@@H](NC(=O)C1Cc3ccccc3N1)CC2 (stereo partly drawn) [(3S)-{3-[(2,3-Dihydro-1H-indole-2-carbonyl)-amino]-6-fluoro-1,2,3,4-tetrahydro-9H-carbazol-9-yl}-acetic acid]
16 nM	CCN(C(=O)CCc1ccccc1)[C@H]1CCc2c(c3cc(F)ccc3n2CC(=O)O)C1 [(3S)-{6-Fluoro-3-[ethyl-(3-phenyl-propionyl)-amino]-1,2,3,4-tetrahydro-9H-carbazol-9-yl}-acetic acid]
9 nM	O=C(O)Cn1c2c(c3cc(F)ccc31)C[C@@H](NC(=O)COc1ccc(Cl)cc1)CC2 [(3S)-{3-[2-(4-Chloro-phenoxy)-acetylamino]-6-fluoro-1,2,3,4-tetrahydro-9H-carbazol-9-yl}-acetic acid]
15 nM	O=C(O)Cn1c2c(c3cc(F)ccc31)C[C@@H](NC(=O)CCc1cc(C(F)(F)F)ccc1C(F)(F)F)CC2 [(3S)-{3-[3-(2,5-Bis-trifluoromethyl-phenyl)-propionylamino]-6-fluoro-1,2,3,4-tetrahydro-9H-carbazol-9-yl}-acetic acid]
33 nM	O=C(O)Cn1c2c(c3cc(F)ccc31)C[C@@H](NC(=O)CCc1ccccc1O)CC2 [(3S)-{6-Fluoro-3-[3-(2-hydroxy-phenyl)-propionylamino]-1,2,3,4-tetrahydro-9H-carbazol-9-yl}-acetic acid]
26 nM	O=C(O)Cn1c2c(c3cc(C(F)(F)F)ccc31)CC(NC(=O)OCc1ccccc1)CC2 (racemic)
6 nM	COCCN(C(=O)CCc1ccccc1OC)[C@H]1CCc2c(c3cc(F)ccc3n2CC(=O)O)C1 [(3S)-(6-Fluoro-3-{(2-methoxy-ethyl)-[3-(2-methoxy-phenyl)-propionyl]-amino}-1,2,3,4-tetrahydro-9H-carbazol-9-yl)-acetic acid]
47 nM	O=C(O)Cn1c2c(c3cc(F)ccc31)C[C@@H](NC(=O)CCc1cccc(OC(F)(F)F)c1)CC2 [(3S)-{6-Fluoro-3-[3-(3-trifluoromethoxy-phenyl)-propionylamino]-1,2,3,4-tetrahydro-9H-carbazol-9-yl}-acetic acid]
16 nM	O=C(O)Cn1c2c(c3cc(F)ccc31)C[C@@H](NC(=O)CCc1ccc(Cl)cc1Cl)CC2 [(3S)-{3-[3-(2,4-Dichloro-phenyl)-propionylamino]-6-fluoro-1,2,3,4-tetrahydro-9H-carbazol-9-yl}-acetic acid]
14 nM	CSc1ccc(CCC(=O)N[C@H]2CCc3c(c4cc(F)ccc4n3CC(=O)O)C2)cc1 [(3S)-{6-Fluoro-3-[3-(4-methylsulfanyl-phenyl)-propionylamino]-1,2,3,4-tetrahydro-9H-carbazol-9-yl}-acetic acid]
6 nM	COc1cccc(NC(=O)CC(Cc2ccccc2)C(=O)N[C@H]2CCc3c(c4cc(F)ccc4n3CC(=O)O)C2)c1 (mixture of isomers) [(3S)-{3-[(RS)-2-Benzyl-3-(3-methoxy-phenylcarbamoyl)-propionylamino]-6-fluoro-1,2,3,4-tetrahydro-9H-carbazol-9-yl}-acetic acid]
57 nM	O=C(O)Cn1c2c(c3cc(F)cc(Cl)c31)CC(NC(=O)CCc1ccccc1)CC2 (racemic)
21 nM	C[C@@H](Cc1ccccc1)C(=O)N(CCOc1ccccc1)[C@H]1CCc2c(c3cc(F)ccc3n2CC(=O)O)C1 [(3S)-{6-Fluoro-3-[((S)-2-methyl-3-phenyl-propionyl)-(2-phenoxy-ethyl)-amino]-1,2,3,4-tetrahydro-9H-carbazol-9-yl}-acetic acid]
60 nM	CN(C(=O)COCc1ccccc1)[C@H]1CCc2c(c3cc(F)ccc3n2CC(=O)O)C1 [(3S)-{3-[(2-Benzyloxy-acetyl)-methyl-amino]-6-fluoro-1,2,3,4-tetrahydro-9H-carbazol-9-yl}-acetic acid]
15 nM	O=C(O)Cn1c2c(c3cc(F)ccc31)C[C@@H](NC(=O)CCc1ccc3c(c1)OCO3)CC2 [(3S)-[3-(3-Benzo[1,3]dioxol-5-yl-propionylamino)-6-fluoro-1,2,3,4-tetrahydro-9H-carbazol-9-yl]-acetic acid]
6 nM	O=C(O)Cn1c2c(c3cc(F)ccc31)C[C@@H](N(CC1CCCCC1)C(=O)NCc1ccccc1)CC2 [(3S)-[3-(3-Benzyl-1-cyclohexylmethyl-ureido)-6-fluoro-1,2,3,4-tetrahydro-9H-carbazol-9-yl]-acetic acid]
39 nM	O=C(O)Cn1c2c(c3cc(F)ccc31)C[C@H](NC(=O)CCc1cccc(Cl)c1)CC2 [(3R)-{3-[3-(3-Chloro-phenyl)-propionylamino]-6-fluoro-1,2,3,4-tetrahydro-9H-carbazol-9-yl}-acetic acid]
18 nM	COc1cccc2c1CC(C(=O)N[C@H]1CCc3c(c4cc(F)ccc4n3CC(=O)O)C1)CC2 (mixture of isomers) [(3S)-(6-Fluoro-3-{[(2RS)-8-methoxy-1,2,3,4-tetrahydro-naphthalene-2-carbonyl]-amino}-1,2,3,4-tetrahydro-9H-carbazol-9-yl)-acetic acid]
